From PMC3629139, “A Powerful Molecular Engineering Tool Provided Efficient Chlamydomonas Mutants as Bio-Sensing Elements for Herbicides Detection” (PLoS ONE, 2013)

Tests used:
Test in all cases: chlorophyll a fluorescence induction (OJIP), inhibition of 1-VJ (QA to QB electron transfer) in living algal cells
Format in all cases: cell-based
Settings in all cases: read-out: Atrazine / I50×10^-7 M / (±SE)
[1] = target: T1, photosystem II (PSII) D1 protein (Chlamydomonas reinhardtii, UniProt P07753)
T1 construct: gene psbA; full-length D1 from intronless psbA in the chloroplast, assembled in native PSII (with D2 and other subunits) in living algal cells; D1 mutants by ep-PCR of Ala153-Ala294 region and biolistic transformation of Del1
Text: (§1) chlorophyll a fluorescence induction (OJIP), inhibition of 1-VJ (QA to QB electron transfer) in living algal cells on photosystem II (PSII) D1 protein

[2] = target: T2, photosystem II (PSII) D1 protein (Chlamydomonas reinhardtii, UniProt P07753, F211S/P162S)
T2 construct: gene psbA; full-length D1 from intronless psbA in the chloroplast, assembled in native PSII (with D2 and other subunits) in living algal cells; D1 mutants by ep-PCR of Ala153-Ala294 region and biolistic transformation of Del1
Text: as §1

[3] = target: T3, photosystem II (PSII) D1 protein (Chlamydomonas reinhardtii, UniProt P07753, G207S)
T3 construct: gene psbA; full-length D1 from intronless psbA in the chloroplast, assembled in native PSII (with D2 and other subunits) in living algal cells; D1 mutants by ep-PCR of Ala153-Ala294 region and biolistic transformation of Del1
Text: as §1

[4] = target: T4, photosystem II (PSII) D1 protein (Chlamydomonas reinhardtii, UniProt P07753, I281T)
T4 construct: gene psbA; full-length D1 from intronless psbA in the chloroplast, assembled in native PSII (with D2 and other subunits) in living algal cells; D1 mutants by ep-PCR of Ala153-Ala294 region and biolistic transformation of Del1
Text: as §1

[5] = target: T5, photosystem II (PSII) D1 protein (Chlamydomonas reinhardtii, UniProt P07753, L200I)
T5 construct: gene psbA; full-length D1 from intronless psbA in the chloroplast, assembled in native PSII (with D2 and other subunits) in living algal cells; D1 mutants by ep-PCR of Ala153-Ala294 region and biolistic transformation of Del1
Text: as §1

[6] = target: T6, photosystem II (PSII) D1 protein (Chlamydomonas reinhardtii, UniProt P07753, M172L)
T6 construct: gene psbA; full-length D1 from intronless psbA in the chloroplast, assembled in native PSII (with D2 and other subunits) in living algal cells; D1 mutants by ep-PCR of Ala153-Ala294 region and biolistic transformation of Del1
Text: as §1

Compound: CCNc1nc(Cl)nc(NC(C)C)n1 [Atrazine, 2-chloro-4-(ethylamine)-6-(isopropylamine)-s-triazine]
- IC50 [1]: 240 nM
- IC50 [2]: 1970 nM
- IC50 [3]: 210 nM
- IC50 [4]: 200 nM
- IC50 [5]: 180 nM
- IC50 [6]: 220 nM
